Source: patent US20170122958A1, “Enzymes Functional Probes” (University of Dundee, priority 2013, published 2017)

How the values were obtained:
Assay in all cases: DSF thermal shift
Format in all cases: binding
Brd2(1) = target: T1, Brd2(1) (Homo sapiens, UniProt P25440); conditions: wild type
T1 construct: Plasmids of the eight single BET bromodomain constructs Brd2(1), Brd2(2), Brd3(1), Brd3(2); His6 (N); made in house; host or cells: E. coli BL21(DE3)
Procedure: (§1) DSF assays were performed on a LightCycler®480 from Roche or a Mx3005P Real Time PCR machine from Stratagene. […] SYPRO®Orange from Invitrogen Molecular Probes® was used as a reporter dye to monitor the denaturing process of the proteins. Samples were assayed on a 96-well plate with final protein concentrations of 2 μM for the LightCycler®480 and 6 μM for Mx3005P. Compounds were added at a final concentration of 10 μM for the LightCycler®480 and 30 μM for Mx3005P, while the tetra acetylated histone peptide was added to a final concentration of 100 μM and 300 μM respectively. […] The temperature was raised with a step of 0.6° C. per minute from 37° C. to 95° C. with the LightCycler®480 collecting 39 measurements per ° C., and 1° C. per minute from 25° C. to 95° C. with Mx3005P, collecting fluorescence readings at the end of each interval. Each sample was run in triplicates.
(§2) Collected data was analysed by IGOR Pro 6, a scientific software tool from Wave Metrics, Inc. Analysis was done following the recommendations of Niesen et al.. Fluorescence intensity was plotted as a function of temperature, generating a sigmoidal curve described by a two-state transition from folded to unfolded protein. Curves were fitted by the following sigmoidal equation: […]
(§3) A1 and A2 are the values of minimum and maximum intensities, respectively, x0 is the inflection point and dx is the rate. Fitted curves were differentiated in IGOR Pro 6 and the maximum of the first derivative was identified using the same program. These values correspond to the inflection points of the transition curves and thus to the melting temperatures of the proteins (Tm).

Brd2(1)*(Trp097His) = target: T2, Brd2(1)*(Trp097His) (Homo sapiens, UniProt P25440, W97H); conditions: mutant
T2 construct: Plasmids of the eight single BET bromodomain constructs Brd2(1), Brd2(2), Brd3(1), Brd3(2); His6 (N); made in house; host or cells: E. coli BL21(DE3)
T2 sequence (P25440 74-180 W97H limits assumed): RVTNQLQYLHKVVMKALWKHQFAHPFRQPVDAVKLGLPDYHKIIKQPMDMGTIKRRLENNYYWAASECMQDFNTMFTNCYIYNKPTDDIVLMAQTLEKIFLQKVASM
Procedure: as §1, §2, §3

Brd2(1)*(Trp097Phe) = target: T3, Brd2(1)*(Trp097Phe) (Homo sapiens, UniProt P25440, W97F); conditions: mutant
T3 construct: Plasmids of the eight single BET bromodomain constructs Brd2(1), Brd2(2), Brd3(1), Brd3(2); His6 (N); made in house; host or cells: E. coli BL21(DE3)
T3 sequence (P25440 74-180 W97F limits assumed): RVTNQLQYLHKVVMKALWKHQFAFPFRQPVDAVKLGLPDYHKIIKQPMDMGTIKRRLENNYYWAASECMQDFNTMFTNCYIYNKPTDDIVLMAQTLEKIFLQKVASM
Procedure: as §1, §2, §3

Brd2(2) = target: T4, Brd2(2) (Homo sapiens, UniProt P25440); conditions: wild type
T4 construct: Plasmids of the eight single BET bromodomain constructs Brd2(1), Brd2(2), Brd3(1), Brd3(2); His6 (N); made in house; host or cells: E. coli BL21(DE3)
T4 sequence (P25440 344-453 limits assumed): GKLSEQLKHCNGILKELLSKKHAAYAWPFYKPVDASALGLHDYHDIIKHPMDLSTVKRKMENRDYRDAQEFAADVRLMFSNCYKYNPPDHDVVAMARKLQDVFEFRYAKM
Procedure: as §1, §2, §3

Brd2(2)*(Trp370His) = target: T5, Brd2(2)*(Trp370His) (Homo sapiens, UniProt P25440, W370H); conditions: mutant
T5 construct: Plasmids of the eight single BET bromodomain constructs Brd2(1), Brd2(2), Brd3(1), Brd3(2); His6 (N); made in house; host or cells: E. coli BL21(DE3)
T5 sequence (P25440 344-453 W370H limits assumed): as the sequence (P25440 344-453 limits assumed) above, with W27H counted along it
Procedure: as §1, §2, §3

Brd2(2)*(Trp370Phe) = target: T6, Brd2(2)*(Trp370Phe) (Homo sapiens, UniProt P25440, W370F); conditions: mutant
T6 construct: Plasmids of the eight single BET bromodomain constructs Brd2(1), Brd2(2), Brd3(1), Brd3(2); His6 (N); made in house; host or cells: E. coli BL21(DE3)
T6 sequence (P25440 344-453 W370F limits assumed): as the sequence (P25440 344-453 limits assumed) above, with W27F counted along it
Procedure: as §1, §2, §3

Brd2(1)*(Met165-Leu) = target: T7, Brd2(1)*(Met165-Leu) (Homo sapiens, UniProt P25440, M165L); conditions: mutant
T7 construct: Plasmids of the eight single BET bromodomain constructs Brd2(1), Brd2(2), Brd3(1), Brd3(2); His6 (N); made in house; host or cells: E. coli BL21(DE3)
T7 sequence (P25440 74-180 M165L limits assumed): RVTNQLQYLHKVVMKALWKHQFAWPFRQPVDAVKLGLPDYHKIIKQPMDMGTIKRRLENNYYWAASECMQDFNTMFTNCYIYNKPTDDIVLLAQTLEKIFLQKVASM
Procedure: (§4) DSF assays were performed on a LightCycler®480 from Roche or a Mx3005P Real Time PCR machine from Stratagene. Prior to DSF assays, frozen proteins were buffer exchanged using Vivaspin®6 concentrators with a 10 kDa cutoff on a Centrifuge 5430 from Eppendorf at a speed of 6000×g to remove glycerol and to buffer the proteins in 20 mM HEPES pH 7.5 at 25° C. and 100 mM NaCl. SYPRO®Orange from Invitrogen Molecular Probes® was used as a reporter dye to monitor the denaturing process of the proteins. Samples were assayed on a 96-well plate with final protein concentrations of 2 μM for the LightCycler®480 and 6 μM for Mx3005P. Compounds were added at a final concentration of 10 μM for the LightCycler®480 and 30 μM for Mx3005P, while the tetra acetylated histone peptide was added to a final concentration of 100 μM and 300 μM respectively. […] The temperature was raised with a step of 0.6° C. per minute from 37° C. to 95° C. with the LightCycler®480 collecting 39 measurements per ° C., and 1° C. per minute from 25° C. to 95° C. with Mx3005P, collecting fluorescence readings at the end of each interval. Each sample was run in triplicates.
as §2, §3

Brd2(2)*(Met438-Ala) = target: T8, Brd2(2)*(Met438-Ala) (Homo sapiens, UniProt P25440, M438A); conditions: mutant
T8 construct: Plasmids of the eight single BET bromodomain constructs Brd2(1), Brd2(2), Brd3(1), Brd3(2); His6 (N); made in house; host or cells: E. coli BL21(DE3)
T8 sequence (P25440 344-453 M438A limits assumed): as the sequence (P25440 344-453 limits assumed) above, with M95A counted along it
Procedure: as §4, §2, §3

Brd2(2)*(Met438-Leu) = target: T9, Brd2(2)*(Met438-Leu) (Homo sapiens, UniProt P25440, M438L); conditions: mutant
T9 construct: Plasmids of the eight single BET bromodomain constructs Brd2(1), Brd2(2), Brd3(1), Brd3(2); His6 (N); made in house; host or cells: E. coli BL21(DE3)
T9 sequence (P25440 344-453 M438L limits assumed): as the sequence (P25440 344-453 limits assumed) above, with M95L counted along it
Procedure: as §4, §2, §3

Brd2(1)*(Met165Ala) = Brd2(1)*(Met165Ala) (Homo sapiens, UniProt P25440, M165A); parameters: Plasmids of the eight single BET bromodomain constructs Brd2(1), Brd2(2), Brd3(1), Brd3(2); His6 (N); made in house; host or cells: E. coli BL21(DE3); conditions: mutant
Brd2(1)*(Met165Ala), sequence (P25440 74-180 M165A limits assumed): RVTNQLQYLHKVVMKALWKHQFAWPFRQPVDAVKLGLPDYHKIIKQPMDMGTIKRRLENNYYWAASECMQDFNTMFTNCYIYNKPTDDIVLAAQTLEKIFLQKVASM
Procedure: as §4, §2, §3

T1 sequence (P25440 74-180 limits assumed): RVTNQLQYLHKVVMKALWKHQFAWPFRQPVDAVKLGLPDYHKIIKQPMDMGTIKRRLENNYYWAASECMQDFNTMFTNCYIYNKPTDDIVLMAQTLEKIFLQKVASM

Row | SMILES | ΔTm Brd2(1) (Brd2(1)) | ΔTm Brd2(1)*(Tryp097-His) (Brd2(1)*(Trp097His)) | ΔTm Brd2(1)*(Tryp097-Phe) (Brd2(1)*(Trp097Phe)) | ΔTm Brd2(2) (Brd2(2)) | ΔTm Brd2(2)*(Tryp370-His) (Brd2(2)*(Trp370His)) | ΔTm Brd2(2)*(Tryp370-Phe) (Brd2(2)*(Trp370Phe)) | Thermal stabilisation brd2(1) (Brd2(1)) | Thermal stabilisation brd2(1)W097H (Brd2(1)*(Trp097His)) | Thermal stabilisation brd2(1)W097F (Brd2(1)*(Trp097Phe)) | Thermal stabilisation brd2(2) (Brd2(2)) | Thermal stabilisation brd2(2)W370H (Brd2(2)*(Trp370His)) | Thermal stabilisation brd2(2)W370F (Brd2(2)*(Trp370Phe)) | ΔTm Brd2(1)*(Met165-Leu) (Brd2(1)*(Met165-Leu)) | ΔTm Brd2(2)*(Met165-Ala) (Brd2(2)*(Met438-Ala)) | ΔTm Brd2(2)*(Met165-Leu) (Brd2(2)*(Met438-Leu)) | ΔTm Brd2(1)*(Met165-Ala) (Brd2(1)*(Met165Ala))
1 | COC(=O)CC1N=C(c2cc(Cl)ccc2Cl)c2cc(OC)ccc2-n2c(C)nnc21 (centres unmarked) [Compound 17] | 1.2 ± 0.2 K | −0.4 ± 0.2 K | 0.0 ± 0.2 K | 2.5 ± 0.2 K | −0.4 ± 0.2 K | 0.3 ± 0.0 K |  |  |  |  |  |  |  |  |  | 
2 | Cc1cccc(Cl)c1S(=O)(=O)Nc1ccc2c(c1)CN(C)C(=O)N2 [Compound 45, 2-chloro-6-methyl-N-(3-methyl-2-oxo-1,2,3,4-tetrahydroquinazolin-6-yl)benzenesulfonamide] | 3.9 ± 0.2 K | 0.0 ± 0.3 K |  | 5.3 ± 0.5 K | 0.8 ± 0.1 K | 2.3 ± 0.1 K |  |  |  |  |  |  |  |  |  | 
3 | COC(=O)CC1N=C(c2cc(C)ccc2C)c2cc(OC)ccc2-n2c(C)nnc21 (racemic) [Compound 10, (+−)-methyl 2-(6-(2,5-dimethylphenyl)-8-methoxy-1-methyl-4H-benzo[f][1,2,4]triazolo[4,3-a][1,4]diazepin-4-yl)acetate] | 1.8 ± 0.2 K | −0.4 ± 0.3 K | 0.1 ± 0.2 K | 3.5 ± 0.1 K | −0.1 ± 0.1 K | 0.6 ± 0.1 K | 1.8 ± 0.2 °C | −0.4 ± 0.3 °C | 0.1 ± 0.2 °C | 3.5 ± 0.1 °C | −0.1 ± 0.1 °C | 0.6 ± 0.1 °C |  |  |  | 
4 | CN1Cc2cc(NS(=O)(=O)c3ccccc3-c3ccccc3)ccc2NC1=O [Compound 44, N-(3-methyl-2-oxo-1,2,3,4-tetrahydroquinazolin-6-yl)-[1,1′-biphenyl]-2-sulfonamide] | 2.8 ± 0.4 K | 1.3 ± 0.2 K | 1.8 ± 0.3 K | 2.1 ± 0.4 K | 0.5 ± 0.3 K | 2.2 ± 0.3 K |  |  |  |  |  |  |  |  |  | 
5 | Cc1cc(C)c(S(=O)(=O)Nc2ccc3c(c2)CN(C)C(=O)N3)c(C)c1 [Compound 42, 2,4,6-trimethyl-N-(3-methyl-2-oxo-1,2,3,4-tetrahydroquinazolin-6 yl)benzenesulfonamide] | 0.7 ± 0.3 K | 0.2 ± 0.4 K | 0.7 ± 0.2 K | 2.7 ± 0.5 K | 0.2 ± 0.2 K | 1.8 ± 0.2 K |  |  |  |  |  |  |  |  |  | 
6 | COc1ccc(S(=O)(=O)Nc2ccc3c(c2)CN(C)C(=O)N3)c(OC)c1 [Compound 54, 2,4-dimethoxy-N-(3-methyl-2-oxo-1,2,3,4-tetrahydroquinazolin-6-yl)benzenesulfonamide] | 2.4 ± 0.2 K |  |  | 1.6 ± 0.2 K |  |  |  |  |  |  |  |  | 2.7 ± 0.3 K | 2.3 ± 0.1 K | 2.4 ± 0.4 K | 1.5 ± 0.2 K
7 | Cc1cc(C)cc(S(=O)(=O)Nc2ccc3c(c2)CN(C)C(=O)N3)c1 [Compound 49, 3,5-dimethyl-N-(3-methyl-2-oxo-1,2,3,4-tetrahydroquinazolin-6-yl)benzenesulfonamide] | 2.6 ± 0.5 K |  |  | 2.8 ± 0.2 K |  |  |  |  |  |  |  |  | 4.1 ± 0.6 K | 2.5 ± 0.2 K | 4.9 ± 0.3 K | 1.1 ± 0.5 K
8 | COC(=O)CC1N=C(c2ccc(Cl)cc2C)c2cc(OC)ccc2-n2c(C)nnc21 (racemic) [Compound 8, (+−)-methyl 2-(6-(4-chloro-2-methylphenyl)-8-methoxy-1-methyl-4H-benzo[f][1,2,4]triazolo[4,3-a][1,4]diazepin-4-yl)acetate] | 6.3 ± 0.1 K | 0.9 ± 0.3 K | 1.4 ± 0.2 K | 6.6 ± 0.2 K | 1.1 ± 0.2 K | 2.8 ± 0.1 K | 6.3 ± 0.1 °C | 0.9 ± 0.3 °C | 1.4 ± 0.2 °C | 6.6 ± 0.2 °C | 1.1 ± 0.2 °C | 2.8 ± 0.1 °C |  |  |  | 
9 | COc1cc(C)ccc1S(=O)(=O)Nc1ccc2c(c1)CN(C)C(=O)N2 [Compound 52, 2-methoxy-4-methyl-N-(3-methyl-2-oxo-1,2,3,4-tetrahydroquinazolin-6-yl)benzenesulfonamide] | 4.7 ± 0.2 K |  |  | 2.8 ± 0.2 K |  |  |  |  |  |  |  |  | 3.1 ± 0.2 K | 2.0 ± 0.2 K | 2.4 ± 0.1 K | 1.2 ± 0.2 K
10 | CN1Cc2cc(NS(=O)(=O)c3c(Cl)cccc3Cl)ccc2NC1=O [Compound 43, 2,6-dichloro-N-(3-methyl-2-oxo-1,2,3,4-tetrahydroquinazolin-6-yl)benzenesulfonamide] | 1.2 ± 0.2 K | 0.2 ± 0.2 K | 0.2 ± 0.3 K | 0.6 ± 0.1 K | 0.3 ± 0.1 K | 1.8 ± 0.3 K |  |  |  |  |  |  |  |  |  | 
11 | COC(=O)CC1N=C(c2ccc(Cl)c(C)c2)c2cc(OC)ccc2-n2c(C)nnc21 (racemic) [Compound 9, (+−)-methyl 2-(6-(4-chloro-3-methylphenyl)-8-methoxy-1-methyl-4H-benzo[f][1,2,4]triazolo[4,3-a][1,4]diazepin-4-yl)acetate] | 1.5 ± 0.2 K | 0.2 ± 0.2 K | −0.1 ± 0.2 K | 3.2 ± 0.1 K | 1.0 ± 0.3 K | 1.5 ± 0.0 K | 1.5 ± 0.2 °C | 0.2 ± 0.2 °C | −0.1 ± 0.2 °C | 3.2 ± 0.1 °C | 1.0 ± 0.3 °C | 1.5 ± 0.0 °C |  |  |  | 
12 | CN1Cc2cc(NS(=O)(=O)c3ccc(-c4ccccc4)cc3)ccc2NC1=O [Compound 48, N-(3-methyl-2-oxo-1,2,3,4-tetrahydroquinazolin-6-yl)-[1,1′-biphenyl]-4-sulfonamide] | 0.5 ± 0.2 K |  |  | 0.0 ± 0.2 K |  |  |  |  |  |  |  |  | 0.0 ± 0.1 K | 0.0 ± 0.1 K | 0.0 ± 0.1 K | 1.5 ± 0.4 K
